Reference: US4330550A, “Oxoimidazolinealkanoic acids and their salts and esters, their preparation and pharmaceutical compositions containing them” (A. Nattermann & Cie. GmbH, priority 1979, dated 1982)
Counter-ions that a name gives are not always drawn.

Tested on: collagen-induced aggregation of platelets (human plasma with a high platelet content)
Experiment: Inhibition of collagen-induced aggregation of thrombocytes in vitro (method of Born)
Format: cell-based
Details: 0.3 μmol/ml
Description: The aggregation of platelets in the presence of the compounds of the invention has been tested by the collagen-induced aggregation method of Born., Nature 4832/927, 29 (1962). The effect of the compounds in inhibiting thrombocyte aggregation was investigated in vitro on human plasma with a high platelet content.
The percentage inhibition of collagen-induced aggregation in vitro by compounds from the Examples indicated in Table 3, or combinations thereof with heparin, at a final concentration of 0.3 or 0.6 μmol of compound per ml of human plasma with a high platelet content, can be seen from the following Table.

SMILES	% inhibition compared with the control (collagen-induced aggregation) [%]
O=C(O)CCCCCCn1c(-c2ccccc2)c[nH]c1=O [Example 2c]	46
O=C(O)CCCCCCn1c(-c2ccc(Cl)cc2)c[nH]c1=O [Example 5c]	63
O=C(O)CCCCCCCn1c(-c2ccccc2)c[nH]c1=O [Example 1c, sodium salt of 8-(2-oxo-5-phenyl-4-imidazolin-1-yl)-caprylic acid]	80
